Source: ChEMBL document CHEMBL3352057, “Novel fluorinated pyrrolo[1,2-a]pyrazine-2,6-dione derivatives: synthesis and anticonvulsant evaluation in animal models of epilepsy” (Bioorg Med Chem, 2014)
Calls of active or inactive are those of the source. The rule behind the calls is not given here.

Experiments:
[1] = tested on: Mus musculus; test: Anticonvulsant activity in ip dosed albino CF1 mouse assessed as protection against maximal electroshock-induced seizures; format: functional
[2] = tested on: Mus musculus; test: Anticonvulsant activity in ip dosed albino CF1 mouse assessed as protection against subcutaneous metrazol-induced seizures; format: functional
[3] = Neurotoxicity in ip dosed albino CF1 mouse; format: toxicity, organism-based; conditions: in vivo
[4] = tested on: Mus musculus; test: Anticonvulsant activity in ip dosed albino CF1 mouse assessed as protection against maximal electroshock-induced seizures measured as time to peak effect; format: functional
[5] = tested on: Mus musculus; test: Anticonvulsant activity in ip dosed albino CF1 mouse assessed as protection against 6 Hz current-induced seizures; format: functional
[6] = tested on: Mus musculus; test: Neurotoxicity in ip dosed 6 Hz current-induced seizure albino CF1 mouse model; format: toxicity, organism-based; conditions: in vivo
[7] = tested on: Mus musculus; test: Anticonvulsant activity in ip dosed albino CF1 mouse assessed as protection against 6 Hz current-induced seizures measured as time to peak effect; format: functional
[8] = tested on: Rattus norvegicus; test: Anticonvulsant activity in pilocarpine-induced status prevention Sprague-Dawley rat model assessed as weight change 24 hrs post-first stage 3 seizure of non-protected rat at 200 mg/kg, ip measured after 0.5 hr; format: functional; conditions: route intraperitoneal
[9] = tested on: Mus musculus; test: Anticonvulsant activity in albino CF1 mouse assessed as protection against maximal electroshock-induced seizures at 100 mg/kg, ip measured after 0.25 hr; format: functional, organism-based; set-up: dose 100 mg/kg
[10] = tested on: Mus musculus; test: Anticonvulsant activity in albino CF1 mouse assessed as protection against maximal electroshock-induced seizures at 100 mg/kg, ip measured after 0.5 hr; format: functional, organism-based; set-up: dose 100 mg/kg
[11] = tested on: Mus musculus; test: Anticonvulsant activity in albino CF1 mouse assessed as protection against maximal electroshock-induced seizures at 100 mg/kg, ip measured after 1 hr; format: functional, organism-based; set-up: dose 100 mg/kg
[12] = tested on: Mus musculus; test: Anticonvulsant activity in albino CF1 mouse assessed as protection against maximal electroshock-induced seizures at 100 mg/kg, ip measured after 4 hrs; format: functional, organism-based; set-up: dose 100 mg/kg
[13] = tested on: Mus musculus; test: Anticonvulsant activity in albino CF1 mouse assessed as protection against subcutaneous metrazol-induced seizures at 100 mg/kg, ip measured after 0.5 hr; format: functional, organism-based; set-up: dose 100 mg/kg
[14] = tested on: Mus musculus; test: Anticonvulsant activity in albino CF1 mouse assessed as protection against subcutaneous metrazol-induced seizures at 100 mg/kg, ip measured after 4 hrs; format: functional, organism-based; set-up: dose 100 mg/kg
[15] = tested on: Mus musculus; test: Neurotoxicity in albino CF1 mouse at 100 mg/kg, ip measured after 0.25 hr; format: toxicity, organism-based; set-up: dose 100 mg/kg, route intraperitoneal; conditions: in vivo
[16] = tested on: Mus musculus; test: Neurotoxicity in albino CF1 mouse at 100 mg/kg, ip measured after 0.5 hr; format: toxicity, organism-based; set-up: dose 100 mg/kg, route intraperitoneal; conditions: in vivo
[17] = tested on: Mus musculus; test: Neurotoxicity in albino CF1 mouse at 100 mg/kg, ip measured after 1 hr; format: toxicity, organism-based; set-up: dose 100 mg/kg, route intraperitoneal; conditions: in vivo
[18] = tested on: Mus musculus; test: Neurotoxicity in albino CF1 mouse at 100 mg/kg, ip measured after 4 hrs; format: toxicity, organism-based; set-up: dose 100 mg/kg, route intraperitoneal; conditions: in vivo
[19] = tested on: Mus musculus; test: Neurotoxicity in albino CF1 mouse assessed as loss of righting reflex at 100 mg/kg, ip measured after 0.25 hr; format: toxicity, organism-based; set-up: dose 100 mg/kg, route intraperitoneal; conditions: in vivo
[20] = tested on: Mus musculus; test: Anticonvulsant activity in albino CF1 mouse assessed as protection against subcutaneous metrazol-induced seizures at 300 mg/kg, ip measured after 0.5 hr; format: functional, organism-based; set-up: dose 300 mg/kg
[21] = tested on: Mus musculus; test: Anticonvulsant activity in albino CF1 mouse assessed as protection against 32 mA current-induced seizures at 100 mg/kg, ip measured after 0.25 hr; format: functional, organism-based; set-up: dose 100 mg/kg
[22] = tested on: Mus musculus; test: Anticonvulsant activity in albino CF1 mouse assessed as protection against 32 mA current-induced seizures at 100 mg/kg, ip measured after 0.5 hr; format: functional, organism-based; set-up: dose 100 mg/kg
[23] = tested on: Mus musculus; test: Anticonvulsant activity in albino CF1 mouse assessed as protection against 32 mA current-induced seizures at 100 mg/kg, ip measured after 1 hr; format: functional, organism-based; set-up: dose 100 mg/kg
[24] = tested on: Mus musculus; test: Anticonvulsant activity in albino CF1 mouse assessed as protection against 32 mA current-induced seizures at 100 mg/kg, ip measured after 2 hrs; format: functional, organism-based; set-up: dose 100 mg/kg
[25] = tested on: Mus musculus; test: Anticonvulsant activity in albino CF1 mouse assessed as protection against 32 mA current-induced seizures at 100 mg/kg, ip measured after 4 hrs; format: functional, organism-based; set-up: dose 100 mg/kg
[26] = tested on: Mus musculus; test: Neurotoxicity in 32 mA current-induced seizure albino CF1 mouse model at 100 mg/kg, ip measured after 0.25 hr; format: toxicity, organism-based; set-up: dose 100 mg/kg, route intraperitoneal; conditions: in vivo
[27] = tested on: Mus musculus; test: Neurotoxicity in 32 mA current-induced seizure albino CF1 mouse model at 100 mg/kg, ip measured after 0.5 hr; format: toxicity, organism-based; set-up: dose 100 mg/kg, route intraperitoneal; conditions: in vivo
[28] = tested on: Mus musculus; test: Neurotoxicity in 32 mA current-induced seizure albino CF1 mouse model at 100 mg/kg, ip measured after 1 hr; format: toxicity, organism-based; set-up: dose 100 mg/kg, route intraperitoneal; conditions: in vivo
[29] = tested on: Mus musculus; test: Neurotoxicity in 32 mA current-induced seizure albino CF1 mouse model at 100 mg/kg, ip measured after 2 hrs; format: toxicity, organism-based; set-up: dose 100 mg/kg, route intraperitoneal; conditions: in vivo
[30] = tested on: Mus musculus; test: Neurotoxicity in 32 mA current-induced seizure albino CF1 mouse model at 100 mg/kg, ip measured after 4 hrs; format: toxicity, organism-based; set-up: dose 100 mg/kg, route intraperitoneal; conditions: in vivo
[31] = tested on: Rattus norvegicus; test: Anticonvulsant activity in Sprague-Dawley rat assessed as protection against maximal electroshock-induced seizures at 30 mg/kg, po measured after 0.25 hr; format: functional, organism-based; set-up: dose 30 mg/kg
[32] = tested on: Rattus norvegicus; test: Anticonvulsant activity in Sprague-Dawley rat assessed as protection against maximal electroshock-induced seizures at 30 mg/kg, po measured after 0.5 hr; format: functional, organism-based; set-up: dose 30 mg/kg
[33] = tested on: Rattus norvegicus; test: Anticonvulsant activity in Sprague-Dawley rat assessed as protection against maximal electroshock-induced seizures at 30 mg/kg, po measured after 1 hr; format: functional, organism-based; set-up: dose 30 mg/kg
[34] = tested on: Rattus norvegicus; test: Anticonvulsant activity in Sprague-Dawley rat assessed as protection against maximal electroshock-induced seizures at 30 mg/kg, po measured after 2 hrs; format: functional, organism-based; set-up: dose 30 mg/kg
[35] = tested on: Rattus norvegicus; test: Anticonvulsant activity in Sprague-Dawley rat assessed as protection against maximal electroshock-induced seizures at 30 mg/kg, po measured after 4 hrs; format: functional, organism-based; set-up: dose 30 mg/kg
[36] = tested on: Rattus norvegicus; test: Neurotoxicity in MES Sprague-Dawley rat model at 30 mg/kg, po measured after 0.25 hr; format: toxicity, organism-based; set-up: dose 30 mg/kg, route oral; conditions: in vivo
[37] = tested on: Rattus norvegicus; test: Neurotoxicity in MES Sprague-Dawley rat model at 30 mg/kg, po measured after 0.5 hr; format: toxicity, organism-based; set-up: dose 30 mg/kg, route oral; conditions: in vivo
[38] = tested on: Rattus norvegicus; test: Neurotoxicity in MES Sprague-Dawley rat model at 30 mg/kg, po measured after 1 hr; format: toxicity, organism-based; set-up: dose 30 mg/kg, route oral; conditions: in vivo
[39] = tested on: Rattus norvegicus; test: Neurotoxicity in MES Sprague-Dawley rat model at 30 mg/kg, po measured after 2 hrs; format: toxicity, organism-based; set-up: dose 30 mg/kg, route oral; conditions: in vivo
[40] = tested on: Rattus norvegicus; test: Neurotoxicity in MES Sprague-Dawley rat model at 30 mg/kg, po measured after 4 hrs; format: toxicity, organism-based; set-up: dose 30 mg/kg, route oral; conditions: in vivo
[41] = tested on: Rattus norvegicus; test: Anticonvulsant activity in Sprague-Dawley rat assessed as protection against maximal electroshock-induced seizures at 30 mg/kg, ip measured after 0.25 hr; format: functional, organism-based; set-up: dose 30 mg/kg
[42] = tested on: Rattus norvegicus; test: Anticonvulsant activity in Sprague-Dawley rat assessed as protection against maximal electroshock-induced seizures at 30 mg/kg, ip measured after 0.5 hr; format: functional, organism-based; set-up: dose 30 mg/kg
[43] = tested on: Rattus norvegicus; test: Anticonvulsant activity in Sprague-Dawley rat assessed as protection against maximal electroshock-induced seizures at 30 mg/kg, ip measured after 1 hr; format: functional, organism-based; set-up: dose 30 mg/kg
[44] = tested on: Rattus norvegicus; test: Anticonvulsant activity in Sprague-Dawley rat assessed as protection against maximal electroshock-induced seizures at 30 mg/kg, ip measured after 2 hrs; format: functional, organism-based; set-up: dose 30 mg/kg
[45] = tested on: Rattus norvegicus; test: Anticonvulsant activity in Sprague-Dawley rat assessed as protection against maximal electroshock-induced seizures at 30 mg/kg, ip measured after 4 hrs; format: functional, organism-based; set-up: dose 30 mg/kg
[46] = tested on: Rattus norvegicus; test: Neurotoxicity in MES Sprague-Dawley rat model at 30 mg/kg, ip measured after 0.25 hr; format: toxicity, organism-based; set-up: dose 30 mg/kg, route intraperitoneal; conditions: in vivo
[47] = tested on: Rattus norvegicus; test: Neurotoxicity in MES Sprague-Dawley rat model at 30 mg/kg, ip measured after 0.5 hr; format: toxicity, organism-based; set-up: dose 30 mg/kg, route intraperitoneal; conditions: in vivo
[48] = tested on: Rattus norvegicus; test: Neurotoxicity in MES Sprague-Dawley rat model at 30 mg/kg, ip measured after 1 hr; format: toxicity, organism-based; set-up: dose 30 mg/kg, route intraperitoneal; conditions: in vivo
[49] = tested on: Rattus norvegicus; test: Neurotoxicity in MES Sprague-Dawley rat model at 30 mg/kg, ip measured after 2 hrs; format: toxicity, organism-based; set-up: dose 30 mg/kg, route intraperitoneal; conditions: in vivo
[50] = tested on: Rattus norvegicus; test: Neurotoxicity in MES Sprague-Dawley rat model at 30 mg/kg, ip measured after 4 hrs; format: toxicity, organism-based; set-up: dose 30 mg/kg, route intraperitoneal; conditions: in vivo
[51] = Protective index, ratio of TD50 for neurotoxicity in ip dosed albino CF1 mouse to ED50 for anticonvulsant activity in ip dosed MES albino CF1 mouse model; format: toxicity, organism-based; conditions: in vivo, read-out: Ratio TD50/ED50
[52] = tested on: Mus musculus; test: Anticonvulsant activity in ip dosed albino CF1 mouse assessed as protection against 32 mA current-induced seizures; format: functional
[53] = Neurotoxicity in ip dosed albino CF1 mouse measured at 0.25 hr post dose; format: toxicity, organism-based; conditions: in vivo
[54] = tested on: Mus musculus; test: Anticonvulsant activity in ip dosed corneal kindled albino CF1 mouse seizure model; format: functional
[55] = tested on: Mus musculus; test: Anticonvulsant activity in ip dosed corneal kindled albino CF1 mouse seizure model assessed as time to peak effect; format: functional
[56] = tested on: Rattus norvegicus; test: Anticonvulsant activity in pilocarpine-induced status prevention Sprague-Dawley rat model assessed as weight change 24 hrs post-first stage 3 seizure of protected rat at 200 mg/kg, ip; format: functional; conditions: route intraperitoneal

CCC1(C)CC(=O)NC1=O (stereo unspecified) [ETHOSUXIMIDE]
ED50 [1]: > 3550 µmol/kg | ED50 [2]: 964 µmol/kg | TD50 [3]: 2420 µmol/kg | Time [4]: 0.25 h | ED50 [5]: 1180 µmol/kg | ED50 [6]: 166 µmol/kg | Time [7]: 0.25 h

Cl.O=C1NC(=O)[C@@H]2CCCN2[C@H]1c1cccc(C(F)(F)F)c1
Activity [8]: -25 g | Activity [9]: Active | Activity [10]: inactive | Activity [11]: Active | Activity [12]: inactive | Activity [13]: inactive | Activity [14]: inactive | Activity [15]: Toxic | Activity [16]: Non-toxic | Activity [17]: Non-toxic | Activity [18]: Non-toxic | Activity [19]: Toxic | Activity [20]: Active | Activity [21]: Active | Activity [22]: Active | Activity [23]: inactive | Activity [24]: inactive | Activity [25]: inactive | Activity [26]: Non-toxic | Activity [27]: Non-toxic | Activity [28]: Non-toxic | Activity [29]: Non-toxic | Activity [30]: Non-toxic | Activity [31]: inactive | Activity [32]: inactive | Activity [33]: inactive | Activity [34]: inactive | Activity [35]: inactive | Activity [36]: Non-toxic | Activity [37]: Non-toxic | Activity [38]: Non-toxic | Activity [39]: Non-toxic | Activity [40]: Non-toxic | Activity [41]: inactive | Activity [42]: inactive | Activity [43]: inactive | Activity [44]: inactive | Activity [45]: inactive | Activity [46]: Non-toxic | Activity [47]: Non-toxic | Activity [48]: Non-toxic | Activity [49]: Non-toxic | Activity [50]: Non-toxic | ED50 [1]: 165 µmol/kg | ED50 [2]: 218 µmol/kg | TD50 [3]: 269 µmol/kg | selectivity ratio [51]: 1.6 | Time [4]: 0.25 h | ED50 [52]: 119 µmol/kg | TD50 at 0.25 h [53]: 166 µmol/kg | Time [7]: 0.5 h | ED50 [54]: 116 µmol/kg | Time [55]: 0.25 h | Activity [56]: -3.8 g
